Here are results for one substance from US8865672B2, “Prevention of tissue ischemia and related methods” (The United States of America, as represented by the …, priority 2006, dated 2014).

Test [1] deals with murine ASMC (WT, CD36 null, CD47 null). The experiment in a line: Murine ASMC adhesion on type I collagen. Conditions: CD47 null MASMC. It counts as cell-based, mouse. As to the method: (§1) Murine ASMC were obtained from aortic segments harvested sterilely from C57B1/6 CD47 null or CD36 null mice as described (Ray et al., Methods Cell Sci 23:185-188, 2001) and cultured in SM-GM (Cambrex)+20% FCS. In the case of CD36 null cells, culture flasks were pre-coated with 1% gelatin prior to cell plating. Wild type C57B1/6 ASMC cultures were prepared as previously described (Isenberg et al., Matrix Biol 24:110-123, 2005). Cell culture purity was determined by immunohistochemistry staining for α-smooth muscle actin. Cells were used within passage 1 to 4 to minimize overgrowth of other cell types.
Cell adhesion was carried out in 96-well culture plates. After pre-coating wells with type I collagen (3 μg/ml in DPBS) harvested cells were plated at a density of 1×10^4 cells/well in medium plus 0.1% BSA and treatment agents and incubated in 5% CO2 for 1 h. Wells were washed with PBS and cells fixed with 1% glutaraldehyde for 10 min., washed and stained with 1% crystal violet for 20 min. Excess stain was rinsed away, adherent cells treated with 10% acetic acid, and plates read at 570 nm.

Test [2] relates to human platelets. The experiment in a line: Human platelet adhesion assay. The test is classed as cell-based. As to conditions: for stimulation of adhesion by TSP1: fibrinogen, in the presence of NO. The procedure: Bacteriological Petri dishes (35×10 mm, Becton Dickinson Labware) were pre-coated with collagen (3 μg/ml) or fibrinogen (15 μg/mL) overnight. Following aspiration of non-adherent matrix, dishes were blocked with 1% BSA. Fresh platelets were washed and suspended in Tyrode's buffer and allowed to adhere for 30 minutes. Plates were washed with PBS, fixed with 0.5% glutaraldehyde and stained with 0.02% toluidine blue. Adherent platelets were counted microscopically. In some experiments platelets were pre-incubated with the Rap1 geranylgeranyltransferase inhibitor GGTI-298 (10 μM) for 30 minutes prior to initiating adhesion.

The subject of test [3] is white hairless Yucatan miniature pig VSMC. The experiment in a line: Porcine VSMC adhesion assay. The test is classed as cell-based. Conditions: TSP1 0.022-2.2 nM. As to the method: White hairless Yucatan miniature pig VSMC were plated at 10,000 cells/well onto 96-well plates (Maxisorb, Nunc) precoated with type I collagen (3 μg/ml). Cells were incubated for 1 h in basal medium (lacking additives and serum) with 0.1% BSA and the indicated concentrations of TSP1 and DEA/NO. Plates were then washed with PBS, fixed with glutaraldehyde, stained with crystal violet, and washed. Absorbed stain was solubilized with acetic acid from fixed cells and the resulting color signal determined on a MR580Microelisa Auto Reader, (Dynatech, Alexandria, Va.) at 450 nm wavelength. In other experiments cell were treated with a CD47 or mismatch control morpholino as described for 48 h prior to harvesting.

The subject of test [4] is murine ASMC (CD47 null). The experiment in a line: Murine ASMC proliferation. The test is classed as cell-based, mouse. Conditions: CD47 null MASMC. The procedure: as §1
Proliferation of vascular cells was measured with a non-radioactive colorimetric assay (CellTiter 96, Promega, Madison, Wis.). Briefly, to each well of a 96-well culture plate (Nunc, Denmark) 5×10^3 cells were suspended in 100 μl of culture medium with indicated treatments and incubated for 72 hours at 37° C. in a 5% CO2 atmosphere. Following incubation 20 μl of tetrazolium compound/solubilization agent was added and incubation continued for 4 hours under the same conditions. The plate was then read on a MR580 Microelisa Auto Reader (Dynatech) at a wavelength of 490 nm. Appropriate zero time controls were run for all assays and the optical density readings obtained then subtracted from those obtained at 72 hours.

Test [5] deals with murine aortic VSMC (WT, TSP1 null, CD47 null). The experiment in a line: 3D collagen gel contraction assay, murine VSMC. The test is classed as cell-based, mouse. Conditions: for relaxation of pre-contracted VSMC by NO: TSP1 2.2 nM. As to the method:
Type I collagen gel (3 mg/ml) with 10×M199 (Gibco, Grand Island, N.Y.) at a 10:1 ratio of collagen to medium was prepared, pH balanced with NaOH and seeded with either HAVSMC or VSMC harvested from aortic segments from C57B16 WT or TSP1 null mice (50,000 cells in 75 μl of gel/well) and aliquoted to 96-well plates (Nunc, Denmark). Plates were incubated for 12 h 37° C. and 5% CO2 allowing for gelation and cell spreading, gently released from the well walls and incubated in serum and additive deficient growth medium with 0.1% BSA in the presence of the indicated treatment agents for 10 h. Contraction was determined by measuring the diameter in perpendicular planes (x, y) of each disk, an average obtained and surface area calculated as (d/2)^2π. Experiments were performed in triplicate. Results represent the mean±SD of at least three separate experiments.
Collagen gel contraction assays were performed using murine derived VSMC (7.5×10^4 cells/gel) as described (Isenberg et al., Blood 2006; Example 2). Wells receiving TSP1 were pre-incubated with the indicated concentrations of agent overnight. Contraction was initiated with either 10% FCS or sphingosine 1-phosphate (S1P, 100 nM).

Test [6] has as its system murine WT and TSP1-null platelets. The experiment in a line: cGMP in murine platelets. The test is classed as cell-based, mouse. Conditions: WT and null platelets, TSP1 2.2 nM. As to the method:
After induction of general anesthesia with isoflurane 2%, age and sex matched C57BL/6 WT and TSP1-null mice underwent cardiac puncture. Blood was aspirated into 1 cc syringes with a 25 gauge needle containing 100 μl heparin (Heparin Lock Flush, Abbott, Chicago, Ill.), mixed with 100 μl 3% ACD and centrifuged in 1.2 ml S-Monovette separation tubes (Sarstedt, Germany). PRP was aspirated off, centrifuged, and the resulting platelet pellet was resuspended in 200 μl of Tyrode's buffer.
Fresh human platelets at 2×10^5 platelets/μl in Tyrode's buffer or PRP were pre-incubated with the indicated agents for 15 minutes and then challenged with DEA/NO for the indicated time interval at room temperature and total cGMP determined via immunoassay (Amersham, GE Healthcare, Buckinghamshire, UK). Murine WT and TSP1-null platelets were treated with DEA/NO and cGMP flux measured.

On to “TSP1: thrombospondin-1 prepared from human platelets”, for which the NO-stimulated adhesion result is “only moderately inhibited” in test [1] (22 nM) and “had no effect” in test [1] (concentrations up to 2.2 nM). In addition, the “basal adhesion of platelets on type I collagen and fibrinogen” value in test [2] (TSP1 2.2 nM) is on record as “moderately increased basal adhesion”. Moreover, the “decrease in platelet adhesion in response to exogenous NO” value in test [2] (fibrinogen or collagen, DEA/NO 10 μM) is “lost”. Further, the “stimulation of adhesion by TSP1” value in test [2] is 55±9%; in test [2] (following Rap1 blockade with GGTI-298), 25±8%. The “NO-stimulated adhesion to type I collagen” value in test [3] was “inhibited”. The NO-stimulated proliferation entry in test [4] is listed as “did not inhibit”. Also, the “relaxation of pre-contracted VSMC by NO” value in test [5] (CD47 null VSMC) is recorded as “absent”; in test [5] (wild type cells), “completely inhibited”. In test [5] (TSP1 null murine VSMC), the “contractile response to S1P” value is recorded as “increased the contractile response of TSP1 null cells to S1P”. The “NO-driven flux in platelet cGMP” value in test [6] was “decreased the NO-driven flux in platelet cGMP”.
